# Assay results as given in ChEMBL document CHEMBL5108042, “Design and synthesis of eugenol/isoeugenol glycoconjugates and other analogues as antifungal agents against Aspergillus fumigatus” (RSC Med Chem, 2022).
# Activity calls are given as the source filed them. The calls are words filed in the database; no cut-off is given here.
# Key:
# Aspergillus fumigatus [1] = assay: Antifungal activity against Aspergillus fumigatus ATCC 46645 assessed as inhibition of fungal growth incubated for 5 days by CLSI protocol based microbroth dilution method; type: functional, organism-based; conditions: ATCC 46645, 120 h
# Aspergillus fumigatus [2] = assay: Antifungal activity against Aspergillus fumigatus ATCC 46645 assessed as inhibition of conidial and mycelial growth incubated for 5 days by CLSI protocol based microbroth dilution method; type: functional; conditions: ATCC 46645, 120 h, time 5 day
# Aspergillus fumigatus [3] = assay: Antifungal activity against Aspergillus fumigatus ATCC 46645 assessed as absence of melanin layer at IC50 concentration by transmission electron microscopic analysis; type: functional, organism-based
# Aspergillus fumigatus [4] = assay: Antifungal activity against Aspergillus fumigatus ATCC 46645 assessed as smooth conidial surface with absence of protrusions at IC50 concentration by scanning electron microscopic analysis; type: functional, organism-based
# Aspergillus fumigatus [5] = assay: Antifungal activity against Aspergillus fumigatus ATCC 46645 assessed as decrease in conidia formation at IC50 concentration by UV-vis spectrophotometric analysis; type: functional, organism-based
# Aspergillus fumigatus [6] = assay: Antibiofilm activity against Aspergillus fumigatus ATCC 46645 at 243.60 to 304.5 uM incubated for 24 hrs by MTT assay; type: functional, organism-based; conditions: dose 243.6-304.5 µM
# Cell membrane = assay: Induction of cell membrane disruption in Aspergillus fumigatus ATCC 46645 assessed as accumulation of cytoplasmic content at IC50 concentration by transmission electron microscopic analysis; type: subcellular
# [7] = Selectivity index, ratio of CC50 for cytotoxicity against human L-132 cells assessed as inhibition of cell growth to IC50 for antifungal activity against Aspergillus fumigatus ATCC 46645 assessed as inhibition of fungal growth; type: toxicity, cell-based; conditions: read-out: Ratio IC50
# Aspergillus fumigatus [8] = assay: Antibiofilm activity against Aspergillus fumigatus ATCC 46645 assessed as absence of ECM on hyphae at 243.60 to 304.5 uM; type: functional, organism-based; conditions: dose 243.6-304.5 µM
# [9] = Cytotoxicity against human L132 cells assessed as inhibition of cell growth incubated for 24 hrs by MTT assay; type: toxicity, cell-based
# Aspergillus fumigatus [10] = assay: Antifungal activity against Aspergillus fumigatus ATCC 46645 assessed as decrease in number of conidia at IC50 concentration by scanning electron microscopic analysis; type: functional, organism-based
# Aspergillus fumigatus [11] = assay: Antifungal activity against Aspergillus fumigatus ATCC 46645 assessed as decrease in DHN-melanin content at IC50 concentration incubated for 5 days by UV-vis spectrophotometric analysis; type: functional, organism-based; conditions: time 5.0 day
# Aspergillus fumigatus [12] = assay: Antifungal activity against Aspergillus fumigatus ATCC 46645 assessed as decrease in DHN-melanin content by measuring absorption spectra at optical density 275 nm at IC50 concentration incubated for 5 days by UV-vis spectrophotometric analysis; type: functional; conditions: time 5 day
# [13] = Cytotoxicity against human L132 cells assessed as inhibition of cell growth; type: toxicity, cell-based
# Aspergillus fumigatus [14] = assay: Antibiofilm activity against Aspergillus fumigatus ATCC 46645 at 69.53 to 86.92 uM incubated for 24 hrs by MTT assay; type: functional, organism-based; conditions: dose 69.53-86.92 µM
# Aspergillus fumigatus [15] = assay: Antibiofilm activity against Aspergillus fumigatus ATCC 46645 assessed as absence of ECM on hyphae at 69.53 to 86.92 uM; type: functional, organism-based; conditions: dose 69.53-86.92 µM
MIC (Aspergillus fumigatus [2]) [µM],SMILES,IC50 (Aspergillus fumigatus [1]) [µM],other results
> 20,C=CCc1ccc(O[Si](C)(C)C(C)(C)C)c(OC)c1,> 25,
> 20,C/C=C/c1ccc(OCc2cn(C3O[C@@H](C)[C@H](OC(C)=O)[C@@H](OC(C)=O)[C@H]3OC(C)=O)nn2)c(OC)c1 (some centres not stated),12.1,
> 20,C/C=C/c1ccc(OCc2cn([C@@H]3O[C@H](COC(C)=O)[C@@H](OC(C)=O)[C@H](OC(C)=O)[C@H]3OC(C)=O)nn2)c(OC)c1,21.7,
> 20,CCCc1ccc(OCc2cn(C[C@@H](O)Cc3ccc(O[Si](C)(C)C(C)(C)C)c(OC)c3)nn2)c(OC)c1,> 25,
> 20,COc1cc(C[C@H](O)CO)ccc1O[Si](C)(C)C(C)(C)C,> 25,
> 20,C=CCc1ccc(OCc2cn(C[C@@H](O)Cc3ccc(O[Si](C)(C)C(C)(C)C)c(OC)c3)nn2)c(OC)c1,> 25,
> 20,C/C=C/c1ccc(OCc2cn([C@@H]3O[C@H](COC(C)=O)[C@@H](O[C@@H]4O[C@H](COC(C)=O)[C@H](OC(C)=O)[C@H](OC(C)=O)[C@H]4OC(C)=O)[C@H](OC(C)=O)[C@H]3OC(C)=O)nn2)c(OC)c1,14.5,
15.5,CCCc1ccc(O)c(OC)c1,9.39,Activity (Aspergillus fumigatus [3]): Active; Activity (Aspergillus fumigatus [4]): Active; Activity (Aspergillus fumigatus [5]): Active; Activity (Aspergillus fumigatus [6]): Active; Activity (Cell membrane): Active; selectivity ratio [7]: 16; Activity (Aspergillus fumigatus [8]): Active; CC50 at 24 h [9]: 150 µM; Activity (Aspergillus fumigatus [10]): Active; Activity (Aspergillus fumigatus [11]): Active; Activity (Aspergillus fumigatus [12]): 0.176
> 20,C#CCOc1ccc(CCC)cc1OC,> 25,
> 20,C/C=C/c1ccc(OCc2cn(C[C@@H](O)Cc3ccc(O[Si](C)(C)C(C)(C)C)c(OC)c3)nn2)c(OC)c1,> 25,
> 20,C#CCOc1ccc(/C=C/C)cc1OC,> 25,
> 20,C/C=C/c1ccc(OCc2cn([C@@H]3O[C@H](COC(C)=O)[C@@H](O[C@H]4O[C@H](COC(C)=O)[C@@H](OC(C)=O)[C@H](OC(C)=O)[C@H]4OC(C)=O)[C@H](OC(C)=O)[C@H]3OC(C)=O)nn2)c(OC)c1,14.5,
> 20,C=CCc1ccc(OCc2cn([C@@H]3O[C@H](COC(C)=O)[C@@H](O[C@H]4O[C@H](COC(C)=O)[C@@H](OC(C)=O)[C@H](OC(C)=O)[C@H]4OC(C)=O)[C@H](OC(C)=O)[C@H]3OC(C)=O)nn2)c(OC)c1,14.5,
> 20,C/C=C/c1ccc(OCc2cn([C@@H]3O[C@H](COC(=O)c4ccccc4)[C@H](OC(=O)c4ccccc4)[C@H](OC(=O)c4ccccc4)[C@H]3OC(=O)c3ccccc3)nn2)c(OC)c1,15.2,
> 20,C/C=C/c1ccc(OCc2cn([C@@H]3O[C@H](COC(C)=O)[C@H](OC(C)=O)[C@H](OC(C)=O)[C@H]3OC(C)=O)nn2)c(OC)c1,10.9,
0.216,C[C@@H]1[C@H](O)[C@@H](C)/C=C/C=C/C=C/C=C/C=C/C=C/C=C/[C@H](O[C@@H]2O[C@H](C)[C@@H](O)[C@H](N)[C@@H]2O)C[C@@H]2O[C@](O)(C[C@@H](O)C[C@@H](O)[C@H](O)CC[C@@H](O)C[C@@H](O)CC(=O)O[C@H]1C)C[C@H](O)[C@H]2C(=O)O [AMPHOTERICIN B],1.08,CC50 [13]: 5.4 µM; Activity (Aspergillus fumigatus [12]): 1.126
10.9,C=CCc1ccc(OCc2cn([C@@H]3O[C@H](COC(C)=O)[C@@H](OC(C)=O)[C@H](OC(C)=O)[C@H]3OC(C)=O)nn2)c(OC)c1,5.42,Activity (Aspergillus fumigatus [3]): Active; Activity (Aspergillus fumigatus [4]): Active; Activity (Aspergillus fumigatus [5]): Active; Activity (Cell membrane): Active; selectivity ratio [7]: 8.01; CC50 at 24 h [9]: 43.5 µM; Activity (Aspergillus fumigatus [14]): Active; Activity (Aspergillus fumigatus [10]): Active; Activity (Aspergillus fumigatus [11]): Active; Activity (Aspergillus fumigatus [15]): Active; Activity (Aspergillus fumigatus [12]): 0.295
> 20,CCCc1ccc(OCc2cn([C@@H]3O[C@H](COC(C)=O)[C@@H](OC(C)=O)[C@H](OC(C)=O)[C@H]3OC(C)=O)nn2)c(OC)c1,> 25,
0.552,CCC(C)n1ncn(-c2ccc(N3CCN(c4ccc(OCC5COC(Cn6cncn6)(c6ccc(Cl)cc6Cl)O5)cc4)CC3)cc2)c1=O (configuration not stated) [ITRACONAZOLE],,
> 20,C=CCc1ccc(OCc2cn([C@@H]3O[C@H](CO)[C@@H](O)[C@H](O)[C@H]3O)nn2)c(OC)c1,> 25,
3800,C/C=C/c1ccc(O)c(OC)c1,1900,Activity (Aspergillus fumigatus [3]): Active; Activity (Aspergillus fumigatus [4]): Active; Activity (Cell membrane): Active; Activity (Aspergillus fumigatus [10]): Active; Activity (Aspergillus fumigatus [12]): 0.399
> 20,COc1cc(C[C@H](O)CN=[N+]=[N-])ccc1O[Si](C)(C)C(C)(C)C,> 25,
> 20,C=CCc1ccc(OCc2cn([C@@H]3O[C@H](COC(C)=O)[C@@H](O[C@@H]4O[C@H](COC(C)=O)[C@H](OC(C)=O)[C@H](OC(C)=O)[C@H]4OC(C)=O)[C@H](OC(C)=O)[C@H]3OC(C)=O)nn2)c(OC)c1,14.5,
> 20,C#CCOc1ccc(CC=C)cc1OC,> 25,
> 20,CCCc1ccc(OCc2cn([C@@H]3O[C@H](CO)[C@H](O)[C@H](O)[C@@H]3O)nn2)c(OC)c1,> 25,
> 20,C=CCc1ccc(OCc2cn([C@@H]3O[C@H](COC(C)=O)[C@H](OC(C)=O)[C@H](OC(C)=O)[C@H]3OC(C)=O)nn2)c(OC)c1,10.9,

SMILES,MIC (Aspergillus fumigatus [2]) [µM],IC50 (Aspergillus fumigatus [1]) [µM],other results
C=CCc1ccc(O)c(OC)c1 [EUGENOL],3800,1900,
